Earlier results, collected in patent US6620432B2, “Phenytoin sodium pharmaceutical compositions” (Mylan Pharmaceuticals Inc., priority 1999, dated 2003).
Counter-ions that a name gives are not always drawn.

Conditions: general statement, no test described

| Solubility in water | Structure (SMILES) |
| --- | --- |
| highly water soluble | O=C1NC(=O)C(c2ccccc2)(c2ccccc2)N1 [Phenytoin sodium, monosodium salt of 5,5-diphenyl hydantoinate] |
| water insoluble | O=C1NC(=O)C(c2ccccc2)(c2ccccc2)N1 [phenytoin] |
